This is an account of results in article PMC12851022, “Targeting the Spliceosomal Protein USP39 Through Allosteric Ligands and PROTAC‐Induced Degradation” (Angewandte Chemie (International Ed. in English), 2025).

One may read the IC50 as the concentration that gives 50% inhibition. Read a high IC50 as weaker potency in that assay.

Experiment [1] has as its target T1, USP39_T2 (Homo sapiens, UniProt Q53GS9).
T1 construct: USP39_T2 (ZNF domain only); made in house
T1 sequence (Q53GS9 103-200 limits assumed): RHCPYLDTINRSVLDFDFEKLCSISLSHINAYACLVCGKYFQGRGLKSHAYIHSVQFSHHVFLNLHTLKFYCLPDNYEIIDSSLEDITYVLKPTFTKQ
The experiment is described as follows: Competitive FP assay, tracer USP39_B1-FITC. It is filed as binding. The conditions noted are these: for Binding in competitive FP screening normalized to USP39_B1: 5 µM compound concentration; for IC50: tracer USP39_B1-FITC, protein USP39_T2. From the text: The compound label is taken from plot legend entries such as 'WT_USP39_B1'. / Panel e: the picture prints no compound label. WT, M1 and M2 are protein variants (targets), not substances.
To systematically investigate structure–activity relationships, we synthesized a series of derivatives by modifying the phenyl ring, either by substituting the chlorine atom with other halogens or varying the substitution pattern (Figure SI2B).
Figure 3 Design and in vitro characterization of USP39‐targeting PROTACs. a) Synthetic strategy for PROTAC synthesis. […] USP39_B1‐FITC served as the tracer, while USP39_T2 acted as the protein. The results were obtained from two independent experiments, each performed in triplicates and are presented as mean ± SD. e) Predicted results from AI‐Based DMPK analysis. MW: Molecular weight; HBA: H‐Bond acceptors; HBD: H‐Bond donors; Con_LogP: Consensus LogP; RotB: Rotatable Bonds; TPSA: Topological polar surface area; ESOL_LogS: predicted aqueous solubility (Log10 mol L^−1); GI: Gastrointestinal absorption; BBB: Blood–brain barrier. A comprehensive overview of all PROTACs and related data is available in Table SI5 of the Supporting Information.

Experiment [2] addresses His-tagged USP39 and GST-tagged VHL (Homo sapiens, UniProt P40337+Q53GS9). As to the kind of experiment: Alpha assay of ternary complex formation. It is filed as binding.
The target of experiment [3] is T1, USP39_T2. As to the kind of experiment: Isothermal titration calorimetry (ITC). It counts as binding.
The target in experiment [4] is T2, FKBP12^F36V-USP39 (Homo sapiens, UniProt, F37V).
T2 construct: expressed in transfected cells
T2 sequence (P62942 whole entry F37V): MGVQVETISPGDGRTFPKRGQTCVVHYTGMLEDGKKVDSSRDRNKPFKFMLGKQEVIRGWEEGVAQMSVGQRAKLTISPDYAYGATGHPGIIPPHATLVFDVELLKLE
T2 sequence (Q96SW2 whole entry, further chain): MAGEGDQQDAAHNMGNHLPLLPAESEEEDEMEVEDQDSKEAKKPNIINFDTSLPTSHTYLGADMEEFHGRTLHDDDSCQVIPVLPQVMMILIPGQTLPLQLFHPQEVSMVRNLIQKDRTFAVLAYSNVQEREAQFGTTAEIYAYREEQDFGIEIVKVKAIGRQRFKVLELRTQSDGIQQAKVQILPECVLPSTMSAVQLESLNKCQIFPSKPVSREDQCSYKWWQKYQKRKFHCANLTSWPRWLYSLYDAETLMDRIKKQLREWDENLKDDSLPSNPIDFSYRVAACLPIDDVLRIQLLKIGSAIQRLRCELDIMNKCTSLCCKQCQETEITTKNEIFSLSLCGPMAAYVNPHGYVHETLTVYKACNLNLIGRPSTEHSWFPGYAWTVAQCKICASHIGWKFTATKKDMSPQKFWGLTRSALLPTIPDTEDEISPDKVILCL
As to the kind of experiment: dTAG system degradation of FKBP12^F36V-USP39. It is filed as cell-based. An excerpt:
(§1) To investigate whether USP39 can be degraded through the ubiquitin‐proteasome system, we utilized the dTAG system by fusing FKBP12^F36V to the N‐terminus of USP39 (Figure SI1A).^[ [22] ^]

Experiment [5] has as its target T3, FKBP12^F36V-USP39 (Homo sapiens, UniProt P62942+Q96SW2, F37V).
T3 construct: expressed in transfected cells
As to the kind of experiment: dTAG system degradation of FKBP12^F36V-USP39. It counts as cell-based.
From the text: as §1

The structures appear in SMILES notation.

Chain of His-tagged USP39 and GST-tagged VHL (Q53GS9 whole entry): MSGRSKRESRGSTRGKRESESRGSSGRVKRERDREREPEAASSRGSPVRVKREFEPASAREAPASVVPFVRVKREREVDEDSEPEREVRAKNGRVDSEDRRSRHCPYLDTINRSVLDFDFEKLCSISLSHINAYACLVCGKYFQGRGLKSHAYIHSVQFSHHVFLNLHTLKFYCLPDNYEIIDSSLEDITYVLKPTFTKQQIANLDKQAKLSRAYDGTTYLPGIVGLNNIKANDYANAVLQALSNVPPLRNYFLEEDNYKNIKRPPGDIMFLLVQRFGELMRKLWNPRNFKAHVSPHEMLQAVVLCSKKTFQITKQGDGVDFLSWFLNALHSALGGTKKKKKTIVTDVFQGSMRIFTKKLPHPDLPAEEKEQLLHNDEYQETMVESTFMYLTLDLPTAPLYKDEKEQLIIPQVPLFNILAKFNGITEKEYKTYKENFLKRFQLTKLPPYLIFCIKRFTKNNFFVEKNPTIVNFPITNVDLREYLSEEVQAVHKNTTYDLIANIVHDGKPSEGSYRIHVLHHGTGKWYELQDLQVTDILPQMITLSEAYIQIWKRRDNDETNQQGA
Chain of His-tagged USP39 and GST-tagged VHL (P40337 whole entry): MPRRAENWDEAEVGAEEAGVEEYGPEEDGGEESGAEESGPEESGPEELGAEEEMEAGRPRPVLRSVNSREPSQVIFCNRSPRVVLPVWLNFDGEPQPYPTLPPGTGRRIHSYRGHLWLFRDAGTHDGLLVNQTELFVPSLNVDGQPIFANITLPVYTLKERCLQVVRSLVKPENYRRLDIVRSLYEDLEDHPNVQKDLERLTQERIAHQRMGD
T3 sequence (P62942 whole entry F37V): as the sequence (P62942 whole entry F37V) above
T3 sequence (Q96SW2 whole entry): as the sequence (Q96SW2 whole entry, further chain) above

In the case of `CCOC(=O)c1csc(Nc2ccccc2Cl)n1` [C4], the “Binding in competitive FP screening normalized to USP39_B1” value at USP39_T2 [1] was “failed to show measurable binding”.
As to `CCOC(=O)c1csc(Nc2ccc(Cl)cc2)n1` [USP39_B1], on USP39_T2 [1] (at 50 µM, USP39_T2, tracer USP39_B1-FITC), the “Inhibitory effect in competitive FP assay” value is “weak inhibitory effect”. For the same compound, the IC50 on USP39_T2 [1] was above 50000 nM. Besides, in experiment [2], the “Kd of ternary complex formation (Alpha assay)” value is listed as “no clear interaction was observed”. Further, the “Kd by ITC” value on USP39_T2 [3] is “did not yield a clear binding isotherm”.
For `CCOC(=O)c1csc(Nc2cccc(F)c2)n1` [USP39_B3], on USP39_T2 [1], the “Binding in competitive FP screening normalized to USP39_B1” value was “significantly improved binding affinity” and the IC50 was 1180 nM.
With `CC[C@H](C(=O)N1CCCC[C@H]1C(=O)O[C@H](CCc1ccc(OC)c(OC)c1)c1ccccc1OCC(=O)NCCCCCCOc1cccc2c1C(=O)N(C1CCC(=O)NC1=O)C2=O)c1cc(OC)c(OC)c(OC)c1` (stereo partly drawn) [dTAG13], the “Effect on endogenous USP39 levels” value at FKBP12^F36V-USP39 [4] is given as “without affecting”. Further, the “Time to degradation of FKBP12^F36V-USP39” value on FKBP12^F36V-USP39 [5] is at most 24 h.
